Test systems include A549; RPMI-8226; UO-31; COLO 205; HCT-15; SR; U-251; 786-0; OVCAR-4; HOP-92; OVCAR-5; SK-MEL-5; RXF 393; SK-MEL-28; SW-620; MCF7; A498; SK-OV-3; HCT-116; PC-3.
Holding throughout (assay): NCI anticancer screen, dose series, 48 h

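Values below derive from 48-hour exposures of cells grown in 96-well plates, with endpoints linearly interpolated between the two concentrations bracketing the appropriate inhibition level. GI50 is the concentration that inhibits growth by half.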 Calls of active or inactive are those of the source. Rule as the data show it: active = GI50 up to about 1.1 µM and inactive = higher.

In the case of `CCOC(=O)c1c(SCCN2CCOCC2)n(-c2ccccc2)c(=S)n(-c2ccccc2)c1=O`, the GI50 in the assay on A549 is > 100 µM (inactive); with RPMI-8226 it was 33.7 µM (inactive); in the assay on UO-31, > 100 µM (inactive); in the assay with COLO 205, > 100 µM (inactive); in the assay on HCT-15, 20 µM; with SR, 18.4 µM (inactive). Also, the GI50 with U-251 is > 100 µM (inactive); in the assay on 786-0, 21.2 µM (inactive); with OVCAR-4, > 100 µM (inactive); with HOP-92, 51.6 µM (inactive); in the assay on OVCAR-5 it was > 100 µM (inactive); in the assay with SK-MEL-5 it was 27.7 µM (inactive). Moreover, the GI50 with RXF 393 is 18.6 µM (inactive); with SK-MEL-28 it was 24 µM (inactive); in the assay on SW-620 it was 21.1 µM (inactive); in the assay on MCF7 it was 21.2 µM (inactive).

As for `COc1ccc(C(=O)C=C2NCCN2)cc1`, the GI50 in the assay on A549, with RPMI-8226, in the assay on UO-31, in the assay with A498, in the assay on COLO 205 and in the assay with SR was > 100 µM (inactive) throughout. In addition, the GI50 with U-251, in the assay with 786-0, in the assay on SK-OV-3, in the assay with OVCAR-4, in the assay with HOP-92 and with OVCAR-5 was > 100 µM (inactive) throughout. Besides, the GI50 in the assay on SK-MEL-5, in the assay on RXF 393, in the assay with HCT-116, in the assay on SK-MEL-28 and in the assay on SW-620 was > 100 µM (inactive) each time.

As to `C=CCOC(C)n1c(C)c(Br)c(=O)[nH]c1=O` (stereo not given), the GI50 is > 100 µM (inactive) in the assay with A549; > 100 µM (inactive) with UO-31; > 100 µM (inactive) in the assay with A498; > 100 µM (inactive) in the assay with COLO 205; more than 100 µM in the assay on HCT-15; > 100 µM (inactive) in the assay on SR. Further, the GI50 in the assay on U-251 is > 100 µM (inactive); with 786-0, > 100 µM (inactive); in the assay on SK-OV-3, 65.2 µM (inactive); in the assay on HOP-92, > 100 µM (inactive); with OVCAR-5, > 100 µM (inactive); in the assay on SK-MEL-5, > 100 µM (inactive). Also, the GI50 in the assay on RXF 393, with HCT-116, with SK-MEL-28 and in the assay with SW-620 was > 100 µM (inactive) throughout.

For `N#CC1(CCCCl)CCCCC1`, the GI50 with A549 is > 100 µM (inactive); with UO-31 it was > 100 µM (inactive); in the assay on A498, > 100 µM (inactive); with COLO 205 it was > 100 µM (inactive); with HCT-15, more than 100 µM; with SR, > 100 µM (inactive). Further, the GI50 with U-251, in the assay on 786-0, with SK-OV-3, in the assay on HOP-92, in the assay with OVCAR-5 and in the assay with SK-MEL-5 was > 100 µM (inactive) throughout. Further, the GI50 in the assay on RXF 393, in the assay on HCT-116, with SK-MEL-28 and with SW-620 was > 100 µM (inactive) each time.

As for `CO[C@H]1C=C[C@]23c4cc5c(cc4CN(CC2O)[C@@H]3C1)OCO5` (stereo not given in full), the GI50 was 3.2 µM (inactive) in the assay with A549; 2.82 µM (inactive) with RPMI-8226; 2.04 µM (inactive) in the assay on UO-31; 2.06 µM (inactive) in the assay on A498; 2.39 µM (inactive) with PC-3; 2.58 µM (inactive) in the assay with COLO 205. Further, the GI50 in the assay on HCT-15 is 1.91 µM; in the assay on U-251, 2.51 µM (inactive); with 786-0, 1.91 µM (inactive); with SK-OV-3, 0.388 µM (active); with OVCAR-4, 1.78 µM (inactive); with HOP-92, 0.336 µM (active). Also, the GI50 is 5.47 µM (inactive) in the assay on OVCAR-5; 2.29 µM (inactive) in the assay with SK-MEL-5; 1.97 µM (inactive) in the assay on HCT-116; 2.17 µM (inactive) with SK-MEL-28; 3.03 µM (inactive) in the assay on SW-620.

As for `CC(=O)OCC1OC(OC2CC3C(C)(C)C(O)CC[C@]3(C)C3CCC45CC4(CC[C@H]5C(C)CC(O)C4OC4(C)C)[C@]23C)C(O)C(O)C1O` (stereo not given in full), the GI50 is 10.6 µM (inactive) in the assay on A549; 0.711 µM (active) with RPMI-8226; 8.51 µM (inactive) in the assay on UO-31; 34.5 µM (inactive) in the assay with A498; 7.24 µM (inactive) in the assay with COLO 205; 8.45 µM in the assay with HCT-15. Further, the GI50 is 1.47 µM (inactive) with SR; 3.89 µM (inactive) in the assay with U-251; 7.57 µM (inactive) with 786-0; 8.2 µM (inactive) in the assay with SK-OV-3; 8.73 µM (inactive) with OVCAR-4; 5.06 µM (inactive) with HOP-92. The GI50 was 9.12 µM (inactive) in the assay with OVCAR-5; 3.1 µM (inactive) in the assay on SK-MEL-5; 4.2 µM (inactive) with RXF 393; 9.14 µM (inactive) in the assay with HCT-116; 7.41 µM (inactive) with SK-MEL-28; 7.98 µM (inactive) with SW-620.

On to `O=C1c2ccccc2C(=O)C1C(c1ccc(F)cc1)C1C(=O)c2ccccc2C1=O`, for which the GI50 is > 100 µM (inactive) in the assay on A549; 48.3 µM (inactive) in the assay with RPMI-8226; > 100 µM (inactive) in the assay with UO-31; > 100 µM (inactive) with COLO 205; more than 100 µM with HCT-15; 41.5 µM (inactive) in the assay with SR. Further, the GI50 in the assay with U-251, in the assay on 786-0, in the assay on SK-OV-3, with OVCAR-4, with HOP-92 and in the assay on OVCAR-5 was > 100 µM (inactive) throughout. The GI50 was > 100 µM (inactive) in the assay with SK-MEL-5; 24.8 µM (inactive) in the assay with RXF 393; > 100 µM (inactive) in the assay with HCT-116; > 100 µM (inactive) with SK-MEL-28; > 100 µM (inactive) in the assay with SW-620.

For `COc1ccc(Nc2nc3cc(C(F)(F)F)ccc3nc2-c2ccccc2)cc1OC`, the GI50 was 25.9 µM (inactive) in the assay on A549; 11.8 µM (inactive) in the assay with UO-31; 52.1 µM (inactive) with A498; 29.3 µM (inactive) with COLO 205; 64.4 µM in the assay with HCT-15; 75.9 µM (inactive) in the assay on SR. Moreover, the GI50 in the assay on U-251 was 30.9 µM (inactive); in the assay on 786-0 it was 41.8 µM (inactive); in the assay on SK-OV-3, 15.9 µM (inactive); with OVCAR-4, 24 µM (inactive); with HOP-92 it was 1.16 µM (inactive); with OVCAR-5, > 100 µM (inactive). Moreover, the GI50 is 20.3 µM (inactive) with SK-MEL-5; 11.9 µM (inactive) in the assay with RXF 393; 12.6 µM (inactive) in the assay with HCT-116; 19.8 µM (inactive) in the assay on SK-MEL-28; 35.5 µM (inactive) with SW-620.

For `N#CC1(N2CCCC2)CCC2(CC1)OCCO2`, the GI50 with A549 is > 100 µM (inactive); with RPMI-8226, > 100 µM (inactive); with UO-31, > 100 µM (inactive); with A498, > 100 µM (inactive); with COLO 205, > 10 µM (inactive); in the assay with HCT-15, more than 100 µM. Moreover, the GI50 in the assay on SR, with U-251, with 786-0, in the assay with SK-OV-3, in the assay with OVCAR-4 and with HOP-92 was > 100 µM (inactive) in each case. Also, the GI50 in the assay on OVCAR-5, in the assay with SK-MEL-5, with RXF 393, in the assay with HCT-116, in the assay on SK-MEL-28 and with SW-620 was > 100 µM (inactive) throughout.

With `CCOC1=C2N=C(Cc3ccccc3F)N=C2C(=O)c2ccccc21`, the GI50 in the assay on A549 is > 100 µM (inactive); in the assay on RPMI-8226 it was > 100 µM (inactive); in the assay with UO-31, > 100 µM (inactive); in the assay with COLO 205 it was > 100 µM (inactive); with HCT-15, more than 100 µM; in the assay on SR, > 100 µM (inactive). Besides, the GI50 in the assay with U-251, with 786-0, with OVCAR-4, in the assay with HOP-92, in the assay with RXF 393 and in the assay with HCT-116 was > 100 µM (inactive) throughout. The GI50 in the assay with SK-MEL-28 and in the assay with SW-620 was > 100 µM (inactive) each time.

In the case of `O=C(Nc1cc(Cl)c(Cl)cc1Cl)C(=O)C(C(=O)c1ccccc1)C1OC(=O)c2ccccc21` (stereo not given), the GI50 in the assay with A549 was > 100 µM (inactive); in the assay with RPMI-8226 it was > 100 µM (inactive); in the assay with UO-31 it was > 100 µM (inactive); in the assay with A498, > 100 µM (inactive); in the assay with COLO 205 it was > 100 µM (inactive); in the assay on HCT-15 it was more than 100 µM. In addition, the GI50 was 97.7 µM (inactive) in the assay with SR; > 100 µM (inactive) in the assay with U-251; > 100 µM (inactive) in the assay with 786-0; > 100 µM (inactive) in the assay with SK-OV-3; > 100 µM (inactive) in the assay on OVCAR-4; > 100 µM (inactive) in the assay with HOP-92. Further, the GI50 in the assay on OVCAR-5, in the assay with RXF 393, with HCT-116, in the assay on SK-MEL-28 and in the assay on SW-620 was > 100 µM (inactive) each time.

For `Clc1ccc(C2SCc3nc4ccccc4n32)c(Cl)c1` (stereo not given), the GI50 was 14.5 µM (inactive) with A549; 6.92 µM (inactive) in the assay on RPMI-8226; 12.1 µM (inactive) in the assay with UO-31; 15 µM (inactive) in the assay on A498; 17 µM (inactive) in the assay on COLO 205; 15.6 µM with HCT-15. For the same compound, the GI50 in the assay on SR was 14.7 µM (inactive); in the assay with U-251 it was 17.9 µM (inactive); in the assay with 786-0 it was 17.2 µM (inactive); in the assay with SK-OV-3 it was 25.8 µM (inactive); in the assay with HOP-92, 2.83 µM (inactive); with OVCAR-5, 16.2 µM (inactive). For the same compound, the GI50 in the assay with SK-MEL-5 is 7.93 µM (inactive); with RXF 393, 15.1 µM (inactive); with HCT-116, 14 µM (inactive); with SK-MEL-28, 16.6 µM (inactive); in the assay on SW-620, 9.16 µM (inactive).

For the origin of these results see ChEMBL document CHEMBL1201862, “PubChem BioAssay data set” (2004).
